Test results reported in patent publication US20090176811A1, “Substituted 5,6,7,8-Tetrahydro-pyrido[4,3-d]pyrimidine-2-yl Compounds and 5,6,7,8-Tetrahydro-quinazoline-2-yl Compounds” (GRUENENTHAL GmbH, priority 2004, published 2009).

What was measured:
5-HT transporter = target: T1, 5-HT transporter (Rattus norvegicus, UniProt P31652); test: 5-HT uptake inhibition in rat brain synaptosomes (medulla and pons); type: biochemical
T1 construct: from tissue; host or cells: rat medulla and pons synaptosomes (P2 fraction)
T1 sequence (P31652 whole entry): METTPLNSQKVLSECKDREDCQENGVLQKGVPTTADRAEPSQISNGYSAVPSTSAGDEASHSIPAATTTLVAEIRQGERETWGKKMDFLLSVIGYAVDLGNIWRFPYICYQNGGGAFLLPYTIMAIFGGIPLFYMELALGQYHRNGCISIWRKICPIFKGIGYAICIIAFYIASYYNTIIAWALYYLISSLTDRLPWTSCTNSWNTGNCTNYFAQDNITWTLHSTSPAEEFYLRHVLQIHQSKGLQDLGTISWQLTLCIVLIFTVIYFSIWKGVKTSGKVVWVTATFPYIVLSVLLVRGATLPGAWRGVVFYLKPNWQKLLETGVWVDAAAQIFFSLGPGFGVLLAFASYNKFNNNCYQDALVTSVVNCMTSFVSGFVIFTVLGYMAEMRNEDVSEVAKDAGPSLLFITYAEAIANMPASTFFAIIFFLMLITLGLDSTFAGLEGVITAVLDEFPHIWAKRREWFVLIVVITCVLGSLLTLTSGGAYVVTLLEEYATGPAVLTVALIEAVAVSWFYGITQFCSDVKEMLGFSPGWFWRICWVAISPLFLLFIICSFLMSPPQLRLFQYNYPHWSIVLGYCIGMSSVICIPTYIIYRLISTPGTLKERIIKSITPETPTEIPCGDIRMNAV
Description: (§1) I. Method for Determining Noradrenalin and 5-HT Uptake Inhibition:
(§2) Synaptosomes from rat brain regions are freshly isolated for in vitro studies, as described in the publication “The isolation of nerve endings from brain” by E. G. Gray and V. P. Whittaker, J. Anatomy 96, pages 79-88, 1962. The corresponding literature description is hereby introduced as a reference and is deemed to be part of the disclosure.
(§3) The tissue (hypothalamus for the determination of noradrenalin uptake inhibition and medulla and pons for the determination of 5-HT uptake inhibition) is homogenised in ice-cooled 0.32 M sucrose (100 mg of tissue/1 mL) in a glass homogeniser with Teflon pestle using five complete up and down strokes at 840 revolutions/minute.
(§4) The homogenate is centrifuged at 4° C. for 10 minutes at 1000 g. After subsequent centrifugation at 17000 g for 55 minutes, the synaptosomes (P2 fraction) are obtained, which are resuspended in 0.32 M […] (0.5 mL/100 mg of original weight).
(§5) The particular uptake is measured in a 96-well microtitre plate. The volume is 250 μl and the incubation proceeds at room temperature (approx. 20-25° C.) under an O2 atmosphere.
(§6) The incubation time is 7.5 minutes for [^3H]-NA and 5 minutes for [^3H]-5-HT.
(§7) The 96 samples are then filtered through a Unifilter GF/B microtitre plate (Packard) and washed with 200 mL of incubated buffer using a “Brabdel MPXRI-96T Cell-Harvester”. The Unifilter GF/B plate is dried for 1 hour at 55° C. The plate is then sealed with a Back seal (Packard) and 35 μl of scintillation fluid are added per well (Ultima Gold, Packard). After sealing with a top seal (Packard) and establishing an equilibrium (around 5 hours), radioactivity is determined in a “Trilux 1450 Microbeta” (Wallac).
(§8) The quantity of protein used in the above determination corresponds to the values known from the literature, as for example described in “Protein measurement with the folin phenol reagent”, Lowry et al., J. Biol. Chem., 193, 265-275, 1951.
(§9) A detailed description of the method may additionally be found in the literature, for example in M. Ch. Frink, H.-H. Hennies, W. Engelberger, M. Haurand and B. Wilffert (1996) Arzneim.-Forsch./Drug Res. 46 (III), 11, 1029-1036.
(§10) The corresponding literature descriptions are hereby introduced in each case as a reference and are deemed to be part of the present disclosure.
(§11) The following characteristics were determined for the NA or 5-HT transporter: […]

NA transporter = target: T2, NA transporter (Rattus norvegicus, UniProt Q63380); test: Noradrenalin uptake inhibition in rat brain synaptosomes (hypothalamus); type: biochemical
T2 construct: from tissue; host or cells: rat hypothalamus synaptosomes (P2 fraction)
T2 sequence (Q63380 1-617): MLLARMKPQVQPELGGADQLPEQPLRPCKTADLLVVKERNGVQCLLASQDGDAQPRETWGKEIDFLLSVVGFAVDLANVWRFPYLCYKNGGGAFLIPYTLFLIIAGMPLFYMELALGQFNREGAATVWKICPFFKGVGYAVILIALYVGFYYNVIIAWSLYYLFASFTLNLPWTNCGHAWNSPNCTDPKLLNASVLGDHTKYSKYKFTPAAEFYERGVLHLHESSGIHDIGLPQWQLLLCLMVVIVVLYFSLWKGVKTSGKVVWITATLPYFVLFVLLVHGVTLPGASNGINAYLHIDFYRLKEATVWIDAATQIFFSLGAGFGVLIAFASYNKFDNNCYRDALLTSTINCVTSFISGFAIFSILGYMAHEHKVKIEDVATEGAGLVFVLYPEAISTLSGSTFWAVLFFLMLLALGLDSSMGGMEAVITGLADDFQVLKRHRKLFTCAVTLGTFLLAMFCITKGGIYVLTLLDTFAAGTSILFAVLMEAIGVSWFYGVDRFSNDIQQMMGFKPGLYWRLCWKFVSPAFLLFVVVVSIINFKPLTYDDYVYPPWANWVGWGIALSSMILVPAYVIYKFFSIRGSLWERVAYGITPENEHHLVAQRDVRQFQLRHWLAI
Description: as §1, §2, §3, §4, §5, §6, §7, §8, §9, §10, §11

Compound | inhibition at 1 µM (5-HT transporter) [%] | inhibition at 10 µM (NA transporter) [%]
CC1(C)C2CCC1(CS(=O)(=O)N1CCc3nc(NC(=O)c4cccc(F)c4)ncc3C1)C(=O)C2 (stereo not shown) [Example 102, N-[6-(7,7-dimethyl-2-oxo-bicyclo[2.2.1]hept-1-ylmethanesulfonyl)-5,6,7,8-tetrahydro-pyrido[4,3-d]pyrimidin-2-yl]-3-fluoro-benzamide] | 63 | 
CCCC(=O)Nc1ncc2c(n1)CCC(NS(=O)(=O)c1ccc(C(C)(C)CC)cc1)C2 (stereo not shown) [Example 167, N-{6-[4-(1,1-dimethyl-propyl)-benzenesulfonylamino]-5,6,7,8-tetrahydro-quinazolin-2-yl}-butyramide] | 32 | 
O=C(NC1CCc2nc(NC(=O)c3cccs3)ncc2C1)c1cc(F)cc(F)c1 (stereo not shown) [Example 97, thiophene-2-carboxylic acid [6-(3,5-difluoro-benzoylamino)-5,6,7,8-tetrahydro-quinazolin-2-yl]-amide] | 30 | 
Cc1ccc([N+](=O)[O-])cc1S(=O)(=O)N1CCc2nc(NC(=O)c3ccccc3F)ncc2C1 [Example 150, 2-fluoro-N-[6-(2-methyl-5-nitro-benzenesulfonyl)-5,6,7,8-tetrahydro-pyrido[4,3-d]pyrimidin-2-yl]-benzamide] | 54 | 
Cc1ccc(C(=O)Nc2ncc3c(n2)CCN(C(=O)c2ccc(SC(F)(F)F)cc2)C3)cc1 [Example 148, 4-methyl-N-[6-(4-trifluoromethylsulfanyl-benzoyl)-5,6,7,8-tetrahydro-pyrido[4,3-d]pyrimidin-2-yl]-benzamide] | 32 | 

Now from value to compound:

inhibition at 1 µM (5-HT transporter) [%] | inhibition at 10 µM (NA transporter) [%] | Compound
40 |  | CCCS(=O)(=O)NC1CCc2nc(NC(=O)c3ccc(F)cc3)ncc2C1 (stereo not shown) [Example 160, 4-fluoro-N-[6-(propane-1-sulfonylamino)-5,6,7,8-tetrahydro-quinazolin-2-yl]-benzamide]
 | 36 | COc1ccc(S(=O)(=O)N2CCc3nc(NC(=O)c4ccc(F)cc4)ncc3C2)cc1 [Example 185, 4-fluoro-N-[6-(4-methoxy-benzenesulfonyl)-5,6,7,8-tetrahydro-pyrido[4,3-d]pyrimidin-2-yl]-benzamide]
65 |  | O=C(Nc1ncc2c(n1)CCN(C(=O)c1cc(F)cc3c1OCOC3)C2)c1ccccc1C(F)(F)F [Example 103, N-[6-(6-fluoro-4H-benzo[1,3]dioxin-8-carbonyl)-5,6,7,8-tetrahydro-pyrido[4,3-d]pyrimidin-2-yl]-2-trifluoromethyl-benzamide]
32 |  | CCN(CC)C(=O)CCC(=O)N1CCc2nc(NC(=O)c3cc(Cl)cc(Cl)c3)ncc2C1 [Example 171, 3,5-dichloro-N-[6-(3-diethylcarbamoyl-propionyl)-5,6,7,8-tetrahydro-pyrido[4,3-d]pyrimidin-2-yl]-benzamide]
29 |  | CCCC(=O)Nc1ncc2c(n1)CCC(NS(=O)(=O)CC13CCC(CC1=O)C3(C)C)C2 (stereo not shown) [Example 162, N-[6-(7,7-dimethyl-2-oxo-bicyclo[2.2.1]hept-1-ylmethanesulfonylamino)-5,6,7,8-tetrahydro-quinazolin-2-yl]-butyramide]
32 |  | CC(C)(C)OC(=O)NCCC(=O)NC1CCc2nc(NC(=O)c3cccs3)ncc2C1 (stereo not shown) [Example 149, (2-{2-[(thiophene-2-carbonyl)-amino]-5,6,7,8-tetrahydro-quinazolin-6-ylcarbamoyl}-ethyl)-carbamic acid tert-butyl ester]
69 |  | CCc1ccc(C(=O)Nc2ncc3c(n2)CCN(C(=O)c2ccc4ncccc4c2)C3)cc1 [Example 173, 4-ethyl-N-[6-(quinoline-6-carbonyl)-5,6,7,8-tetrahydro-pyrido[4,3-d]pyrimidin-2-yl]-benzamide]
35 |  | O=C(Nc1ncc2c(n1)CCC(NS(=O)(=O)Cc1ccccc1)C2)c1cccs1 (stereo not shown) [Example 165, thiophene-2-carboxylic acid (6-phenylmethanesulfonylamino-5,6,7,8-tetrahydro-quinazolin-2-yl)-amide]
